Assay [1] has as its system mice. Put plainly: Forced swimming test (FST). The class given is in vivo. The protocol: (§1) All animal experiment procedures of the present disclosure were conducted in compliance with the preliminary review and ethics regulations of the Animal Experiment Ethics Committee of Daegu Haany University. 4-week-old male ICR mice (SPF/VAF CrljBgi:CD-1) were supplied from the Daehan Biolink (Chungcheongbuk-do, Korea), and adapted and used for 7 days in the pharmacology animal laboratory of Daegu Haany University. Each group consisted of 8 mice, and 5 mice were housed in polycarbonate mice cages and bred in a breeding room where a temperature of 23±1° C., humidity of 50±5%, and lighting time of 07:00 to 19:00 (12-hour cycle) were kept constant. During the adaptation period, feed and water were supplied without restrictions. […]
(§2) In order to verify whether there was an antidepressant effect of the herbal medicine complex extracts of Zizyphi spinosi Semen, Jujubae Fructus, Hordei Fructus Germinatus, Glycyrrhizae Radix et Rhizoma, Angelicae Gigantis Radix, and Beta vulgaris of the present disclosure, a forced swimming test (FST) was performed using experimental animals. The antidepressant effect was determined by measuring the immobility time during the forced swimming test, and it was meant that shorter the immobility time, the greater the antidepressant effect. […]

The test system of assay [2] is mice. Put plainly: Tail suspension test (TST). The class given is in vivo. The protocol: as §1
as §2, with “tail suspension” for “forced swimming”, “(TST)” for “(FST)”, “experimental animals with tails alternated mobility and immobility, and the” for “it was meant that”, “there was” for “the greater”

Where [3] appears, read: imipramine 15 mg/kg intraperitoneally.

As to `CN(C)CCCN1c2ccccc2CCc2ccccc21` [Imipramine, imipramine], the “immobility time compared to the control group” value in assay [1] (setting [3]) is listed as “reduced”; in assay [2] (setting [3]), “decreased”. For the same molecule, the Immobility time in assay [1] (measured for 4 minutes, imipramine 15 mg/kg intraperitoneally for 1 week, test 30 minutes after administration on day 7) was 177.01 ± 5.67 s; in assay [2] (measured for 10 minutes, imipramine 15 mg/kg intraperitoneally for 1 week), 157.82 ± 11.02 s.

Source of the values: patent US12728149B2, “Pharmaceutical composition for preventing and treating depression, comprising herbal medicine complex extracts of Zizyphi spinosi Semen, Jujubae Fructus, Hordei Fructus Germinatus, Glycyrrhizae Radix et Rhizoma, Angelicae Gigantis Radix, and Beta vulgaris as active ingredients” (INDUSTRY-ACADEMIC COORPERATION FOUNDATION DAEGU HAANY …, priority 2023, dated 2026).
